The target in one data set is PDE3A (Homo sapiens, UniProt Q14432). The data set can be described thus: PDE3A enzyme assay, [3H]cAMP SPA. Format: biochemical.
Another data set deals with PDE3B (Homo sapiens, UniProt Q13370). Kind of data set: PDE3B enzyme assay, [3H]cAMP SPA. Format: biochemical.
For another data set, the target named is recombinant human PED10A (Homo sapiens, UniProt Q9Y233). The data set can be described thus: PDE10A enzyme assay, [3H]cAMP scintillation proximity assay. Format: biochemical.
Sequence of recombinant human PED10A (Q9Y233 whole entry): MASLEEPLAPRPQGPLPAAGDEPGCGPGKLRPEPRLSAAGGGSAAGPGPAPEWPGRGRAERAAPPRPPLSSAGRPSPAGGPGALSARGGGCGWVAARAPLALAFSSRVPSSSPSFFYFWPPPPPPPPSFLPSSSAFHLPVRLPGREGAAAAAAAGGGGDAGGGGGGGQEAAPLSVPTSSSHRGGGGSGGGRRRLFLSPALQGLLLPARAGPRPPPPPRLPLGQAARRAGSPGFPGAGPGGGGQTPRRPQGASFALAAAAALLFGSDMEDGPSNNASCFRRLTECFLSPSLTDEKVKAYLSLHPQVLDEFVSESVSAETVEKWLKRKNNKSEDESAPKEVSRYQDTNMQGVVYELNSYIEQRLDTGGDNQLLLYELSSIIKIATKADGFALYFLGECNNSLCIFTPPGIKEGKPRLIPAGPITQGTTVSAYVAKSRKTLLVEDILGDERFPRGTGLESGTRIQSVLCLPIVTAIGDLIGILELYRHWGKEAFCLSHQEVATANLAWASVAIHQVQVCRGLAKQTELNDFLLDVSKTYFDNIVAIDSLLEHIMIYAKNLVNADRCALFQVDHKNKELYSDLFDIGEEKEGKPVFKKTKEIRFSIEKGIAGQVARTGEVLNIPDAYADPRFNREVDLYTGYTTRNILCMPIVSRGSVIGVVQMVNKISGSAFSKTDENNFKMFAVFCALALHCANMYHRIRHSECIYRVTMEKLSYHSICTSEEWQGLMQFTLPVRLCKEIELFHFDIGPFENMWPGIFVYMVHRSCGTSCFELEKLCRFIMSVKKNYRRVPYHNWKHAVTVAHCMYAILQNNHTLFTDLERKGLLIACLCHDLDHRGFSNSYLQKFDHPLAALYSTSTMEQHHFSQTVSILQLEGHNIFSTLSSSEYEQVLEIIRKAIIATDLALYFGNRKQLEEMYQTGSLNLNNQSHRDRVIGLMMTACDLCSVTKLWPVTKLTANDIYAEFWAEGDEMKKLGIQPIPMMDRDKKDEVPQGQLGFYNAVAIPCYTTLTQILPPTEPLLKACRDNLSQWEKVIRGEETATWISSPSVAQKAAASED
Data set [1] relates to rats. As to conditions: ref [8], cited from earlier work.
Data set [2] relates to rats. As to conditions: ref [8]; cited from earlier work.
The next data set deals with rat. As to conditions: ref [23]; cited from earlier work.
The conditions of data set [3]: ref [24]; cited from earlier work.

Counter-ions that a name gives are not always drawn.

Sequence of PDE3B (Q13370 whole entry, species assumed): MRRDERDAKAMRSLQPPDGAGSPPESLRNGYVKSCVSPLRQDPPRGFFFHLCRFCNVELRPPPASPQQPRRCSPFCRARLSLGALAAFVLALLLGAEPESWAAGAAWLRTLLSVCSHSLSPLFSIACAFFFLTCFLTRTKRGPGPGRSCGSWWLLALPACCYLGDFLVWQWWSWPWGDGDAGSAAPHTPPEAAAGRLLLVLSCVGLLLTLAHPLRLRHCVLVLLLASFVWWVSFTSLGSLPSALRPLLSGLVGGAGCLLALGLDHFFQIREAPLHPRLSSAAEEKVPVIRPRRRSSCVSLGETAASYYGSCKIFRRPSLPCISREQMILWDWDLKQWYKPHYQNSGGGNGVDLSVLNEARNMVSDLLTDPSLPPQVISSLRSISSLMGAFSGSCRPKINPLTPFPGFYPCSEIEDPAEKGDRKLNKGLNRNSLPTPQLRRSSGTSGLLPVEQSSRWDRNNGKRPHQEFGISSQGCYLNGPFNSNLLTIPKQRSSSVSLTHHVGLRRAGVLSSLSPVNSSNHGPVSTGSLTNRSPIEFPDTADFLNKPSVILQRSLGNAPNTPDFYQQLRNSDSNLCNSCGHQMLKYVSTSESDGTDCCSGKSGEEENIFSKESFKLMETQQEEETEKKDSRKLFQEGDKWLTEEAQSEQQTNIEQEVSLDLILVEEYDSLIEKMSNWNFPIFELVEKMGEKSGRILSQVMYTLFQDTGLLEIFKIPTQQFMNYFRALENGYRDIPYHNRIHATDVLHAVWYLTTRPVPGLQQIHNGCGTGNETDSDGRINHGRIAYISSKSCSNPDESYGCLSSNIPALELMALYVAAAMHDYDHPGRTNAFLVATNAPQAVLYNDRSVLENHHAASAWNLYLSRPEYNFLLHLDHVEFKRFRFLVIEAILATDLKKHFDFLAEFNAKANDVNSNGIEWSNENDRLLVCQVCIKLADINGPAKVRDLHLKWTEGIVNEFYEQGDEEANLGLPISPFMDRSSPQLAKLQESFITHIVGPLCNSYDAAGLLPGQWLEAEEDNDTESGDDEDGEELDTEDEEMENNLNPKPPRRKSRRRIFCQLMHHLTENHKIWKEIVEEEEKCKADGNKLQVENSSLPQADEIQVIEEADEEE
Sequence of PDE3A (Q14432 whole entry, species assumed): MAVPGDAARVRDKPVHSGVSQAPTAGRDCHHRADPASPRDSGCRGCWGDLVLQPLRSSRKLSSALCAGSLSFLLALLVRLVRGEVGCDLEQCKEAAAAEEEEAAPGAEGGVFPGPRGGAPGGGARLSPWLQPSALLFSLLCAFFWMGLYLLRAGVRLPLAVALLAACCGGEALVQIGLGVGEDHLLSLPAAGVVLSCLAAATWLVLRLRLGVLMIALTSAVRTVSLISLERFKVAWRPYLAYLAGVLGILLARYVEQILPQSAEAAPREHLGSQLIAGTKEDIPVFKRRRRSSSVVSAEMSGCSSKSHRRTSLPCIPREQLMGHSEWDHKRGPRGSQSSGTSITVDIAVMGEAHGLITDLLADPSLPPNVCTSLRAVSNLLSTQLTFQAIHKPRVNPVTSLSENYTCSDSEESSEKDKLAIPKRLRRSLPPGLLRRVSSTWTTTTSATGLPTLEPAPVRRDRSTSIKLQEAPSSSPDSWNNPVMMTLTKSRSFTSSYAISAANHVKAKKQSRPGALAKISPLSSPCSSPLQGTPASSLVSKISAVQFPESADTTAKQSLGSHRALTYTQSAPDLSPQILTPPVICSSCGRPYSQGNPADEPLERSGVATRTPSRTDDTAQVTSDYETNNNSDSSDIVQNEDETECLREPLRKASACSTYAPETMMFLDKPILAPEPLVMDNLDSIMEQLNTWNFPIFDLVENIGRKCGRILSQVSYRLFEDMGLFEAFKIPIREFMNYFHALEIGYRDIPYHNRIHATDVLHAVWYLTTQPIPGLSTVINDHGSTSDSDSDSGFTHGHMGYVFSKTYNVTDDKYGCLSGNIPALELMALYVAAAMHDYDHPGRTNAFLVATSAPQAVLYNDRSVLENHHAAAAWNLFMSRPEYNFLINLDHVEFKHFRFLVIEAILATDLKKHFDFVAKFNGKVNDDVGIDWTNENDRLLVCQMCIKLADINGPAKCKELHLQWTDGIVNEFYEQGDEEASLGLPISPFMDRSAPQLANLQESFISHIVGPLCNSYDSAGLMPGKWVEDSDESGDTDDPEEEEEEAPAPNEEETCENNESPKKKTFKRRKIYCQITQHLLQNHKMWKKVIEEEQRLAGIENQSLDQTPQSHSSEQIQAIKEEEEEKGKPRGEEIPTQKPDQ

For the compound `COc1ccc(Cc2ncnc3cc(OC)c(OC)cc23)cc1` [compound 11, 6,7-Dimethoxy-4-(4-methoxybenzyl)quinazoline oxalate], the values for the IC50 against PDE3A, at PDE3B and on recombinant human PED10A were 3.98 ± 0.51 µM, 3.1 ± 0.27 µM and 0.0488 ± 0.00107 µM, respectively.
For the compound `COc1ccc(Cc2nccc3cc(OC)c(OC)cc23)cc1OC` [Papaverine, 1-(3,4-dimethoxybenzyl-6,7-dimethoxy)isoquinoline], the “catalepsy on its own” value in the data set on rats [1] (compound alone) was “did not cause catalepsy on its own”. Moreover, in the data set with rats [1] (with haloperidol), the “effect on cataleptic effect of the D2 receptor antagonist haloperidol” value is listed as “potentiated the cataleptic effect”. Moreover, in the data set on rats [2], the “hyperactivity induced by phenylcyclohexylpiperidine (PCP) and amphetamine” value (shortened to “hyperactivity induced”) is “able to reduce hyperactivity”. The “efficacy in novel object recognition” value in the data set on rat is reported as “shown efficacy”. The in vivo metabolism result in data set [3] is listed as “rapid in vivo metabolism”.
For `COc1cc2ncnc(C3CC[C@H](Oc4cnc5ccccc5n4)C3)c2cc1OC` (stereo partly shown) [PQ-10], the “hyperactivity induced” value in the data set with rats [2] is “able to reduce hyperactivity”.
On to `COc1cc2ccnc(Cc3ccc(OCCOCCF)c(OC)c3)c2cc1OC.O=C(O)C(=O)O` [8c, 1-(4-(2-(2-Fluoroethoxy)ethoxy)-3-methoxybenzyl)-6,7-dimethoxyisoquinoline oxalate], for which, on recombinant human PED10A (4-fluoroethoxy extended to 4-(2-(2-fluoroethoxy))ethoxy), the “increase of PDE10A affinity versus 8b” value worked out at 2 fold.
With `FC(F)(F)Cn1cc(-c2ccncc2)c(-c2ccc(OCc3ccc4ccccc4n3)cc2)n1` [TP-10], in the data set on rats [2], the “hyperactivity induced” value is listed as “able to reduce hyperactivity”.
As for `COc1cc(Cc2nccc3cc(OC)c(OCCF)cc23)cc(OC)c1` [6l, 1-(3,5-Dimethoxybenzyl)-7-(2-fluoroethoxy)-6-methoxyisoquinoline oxalate], on recombinant human PED10A, the IC50 was found to be 0.262 ± 0.0011 µM.
`Cn1cc(-c2ccncc2)c(-c2ccc(OCc3ccc4ccccc4n3)cc2)n1` [MP-10]: the “hyperactivity induced” value in the data set with rats [2] was “able to reduce hyperactivity”.

The term IC50 denotes the concentration at which inhibition is half-maximal.
